Tests used:
Format in all cases: in vivo, human
[1] = system: APOE4 heterozygous patients with Alzheimer's disease; test: Phase 3 trials of tramiprosate, CDR-SB score, heterozygous APOE4+ patients; conditions: Heterozygous APOE4+ patients ≤85 years
Description: (§1) The delta value in all of these tables is calculated by measuring the increase in score over baseline for each patient in a treatment group and obtaining the mean increase for such group and then subtracting that value from the mean increase in score over baseline for all patients in the placebo group. Thus, a positive delta value in these tables represents an improvement over the placebo group. Phase 3 human clinical trials of tramiprosate to treat Alzheimer's disease at doses of 100 mg BID and 150 mg BID for up to 78 weeks were run in both North America and Europe (1691 total patients enrolled). Placebos in both trials were treatment with donepezil either alone or in combination with memantine. ADAS-Cog scores and CDR-SB scores were obtained every 13 weeks for patients that remained in the trial. The patients were genotyped for APOE4 and the severity of their disease was measured using MMSE prior to the beginning of treatment. The data from both trials were merged for certain statistical analyses. […] We then performed additional subgroup analysis, subgrouping by APOE4 genotype/allele status (APOE4 heterozygous or APOE4 homozygous) and by disease severity (mild vs moderate) to determine if the number of c alleles and/or the severity of disease predicted a better outcome of tramiprosate therapy. […] In Table 4, *control treatment is donepezil either alone or in combination with memantine. Positive delta values quantitate the amount by which average increase in CDR-SB Score points above baseline for the control group exceeded the average increase in CDR-SB Score points above baseline for the treatment group.

[2] = Safety in Phase 3 tramiprosate studies
Description: In some embodiments, the subject is determined to have moderate AD when the subject has a baseline MMSE score in the range of 16-19. In some embodiments, the subject is determined to have mild AD when the subject has a baseline MMSE score in the range of 20-26. […] Safety data from Phase 3 tramiprosate studies support bridging to the ALZ-801 safety database, based on bioequivalence. The disclosures in provisional application Ser. No. 62/216,404, filed Sep. 10, 2015, 62/290,287, filed Feb. 2, 2016, and 62/365,809, filed Jul. 22, 2016 are incorporated herein for all purposes and particularly regarding dosages and formulations.

[3] = system: APOE4/4 homozygous patients with Alzheimer's disease; test: Phase 3 trials of tramiprosate, ADAS-Cog and CDR-SB by baseline MMSE, APOE4/4 homozygous subjects; conditions: 150 mg BID
Description: Analysis of the efficacy or tramiprosate in APOE4/4 homozygous subjects based on baseline MMSE was performed to evaluate for differences in drug response between Mild and Moderate patients. […] analyses were performed on the following baseline MMSE categories: Mild-to-Moderate AD population (baseline MMSE 16-26 inclusive), Mild AD population (baseline MMSE 20-26 inclusive), and the More Mild AD population (baseline MMSE 22-26 inclusive). The data is shown below in FIG. 7, panels A and B.

[4] = system: APOE4 heterozygous patients with Alzheimer's disease; test: Phase 3 trials of tramiprosate, ADAS-Cog score, heterozygous APOE4+ patients; conditions: Heterozygous APOE4+ patients ≤85 years
Description: as §1, with “Table 3,” for “Table 4,”, “in ADAS-Cog” for “in CDR-SB”

[5] = Mild (MMSE 20-26), 100 mg BID, 52 weeks
[6] = Mild (MMSE 20-26), 100 mg BID, 65 weeks
[7] = Mild (MMSE 20-26), 100 mg BID, 78 weeks
[8] = Mild (MMSE 20-26), 150 mg BID, 52 weeks
[9] = Mild (MMSE 20-26), 150 mg BID, 65 weeks
[10] = Mild (MMSE 20-26), 150 mg BID, 78 weeks
[11] = Mild-to-Moderate (MMSE 16-26), 100 mg BID, 52 weeks
[12] = Mild-to-Moderate (MMSE 16-26), 100 mg BID, 65 weeks
[13] = Mild-to-Moderate (MMSE 16-26), 100 mg BID, 78 weeks
[14] = Mild-to-Moderate (MMSE 16-26), 150 mg BID, 52 weeks
[15] = Mild-to-Moderate (MMSE 16-26), 150 mg BID, 65 weeks
[16] = Mild-to-Moderate (MMSE 16-26), 150 mg BID, 78 weeks
[17] = Moderate (MMSE 16-19), 100 mg BID, 52 weeks
[18] = Moderate (MMSE 16-19), 100 mg BID, 65 weeks
[19] = Moderate (MMSE 16-19), 100 mg BID, 78 weeks
[20] = Moderate (MMSE 16-19), 150 mg BID, 52 weeks
[21] = Moderate (MMSE 16-19), 150 mg BID, 65 weeks
[22] = Moderate (MMSE 16-19), 150 mg BID, 78 weeks

NCCCS(=O)(=O)O [Tramiprosate, 3-amino-1-propanesulfonic acid]
CDR-SB Score Change over Standard of Care (Δ improvement vs control) [1, 5]: 0.2 points
CDR-SB Score Change over Standard of Care (Δ improvement vs control) [1, 6]: 0.3 points
CDR-SB Score Change over Standard of Care (Δ improvement vs control) [1, 7]: 0.3 points
CDR-SB Score Change over Standard of Care (Δ improvement vs control) [1, 8]: 0.1 points
CDR-SB Score Change over Standard of Care (Δ improvement vs control) [1, 9]: −0.1 points
CDR-SB Score Change over Standard of Care (Δ improvement vs control) [1, 10]: 0 points
CDR-SB Score Change over Standard of Care (Δ improvement vs control) [1, 11]: 0.5 points
CDR-SB Score Change over Standard of Care (Δ improvement vs control) [1, 12]: 0.5 points
CDR-SB Score Change over Standard of Care (Δ improvement vs control) [1, 13]: 0.6 points
CDR-SB Score Change over Standard of Care (Δ improvement vs control) [1, 14]: 0.4 points
CDR-SB Score Change over Standard of Care (Δ improvement vs control) [1, 15]: 0.3 points
CDR-SB Score Change over Standard of Care (Δ improvement vs control) [1, 16]: 0.50 points
CDR-SB Score Change over Standard of Care (Δ improvement vs control) [1, 17]: 1.00 points
CDR-SB Score Change over Standard of Care (Δ improvement vs control) [1, 18]: 1.00 points
CDR-SB Score Change over Standard of Care (Δ improvement vs control) [1, 19]: 1.00 points
CDR-SB Score Change over Standard of Care (Δ improvement vs control) [1, 20]: 1.00 points
CDR-SB Score Change over Standard of Care (Δ improvement vs control) [1, 21]: 1.1 points
CDR-SB Score Change over Standard of Care (Δ improvement vs control) [1, 22]: 1.5 points
Most common adverse event [2]: nausea
Safety profile [2]: favorable safety profile
Improvement compared with patients with lower MMSE at baseline ([3]; Mild AD (baseline MMSE ≥20) or More Mild AD (baseline MMSE ≥22)): higher improvement
Efficacy and cognitive benefit by baseline MMSE ([3]; baseline MMSE ≥22 (More Mild), 78 weeks): highest efficacy and a sustained cognitive benefit
ADAS-Cog Score Change over Standard of Care (Δ improvement vs control) [4, 5]: 0.9 points
ADAS-Cog Score Change over Standard of Care (Δ improvement vs control) [4, 6]: −0.3 points
ADAS-Cog Score Change over Standard of Care (Δ improvement vs control) [4, 7]: 0.8 points
ADAS-Cog Score Change over Standard of Care (Δ improvement vs control) [4, 8]: 0.1 points
ADAS-Cog Score Change over Standard of Care (Δ improvement vs control) [4, 9]: −0.6 points
ADAS-Cog Score Change over Standard of Care (Δ improvement vs control) [4, 10]: −0.5 points
ADAS-Cog Score Change over Standard of Care (Δ improvement vs control) [4, 11]: 2.0 points
ADAS-Cog Score Change over Standard of Care (Δ improvement vs control) [4, 12]: 0.8 points
ADAS-Cog Score Change over Standard of Care (Δ improvement vs control) [4, 13]: 1.1 points
ADAS-Cog Score Change over Standard of Care (Δ improvement vs control) [4, 14]: 0.5 points
ADAS-Cog Score Change over Standard of Care (Δ improvement vs control) [4, 15]: 0.0 points
ADAS-Cog Score Change over Standard of Care (Δ improvement vs control) [4, 16]: −0.4 points
ADAS-Cog Score Change over Standard of Care (Δ improvement vs control) [4, 17]: 4.4 points
ADAS-Cog Score Change over Standard of Care (Δ improvement vs control) [4, 18]: 3.4 points
ADAS-Cog Score Change over Standard of Care (Δ improvement vs control) [4, 19]: 2 points
ADAS-Cog Score Change over Standard of Care (Δ improvement vs control) [4, 20]: 1.5 points
ADAS-Cog Score Change over Standard of Care (Δ improvement vs control) [4, 21]: 1.4 points
ADAS-Cog Score Change over Standard of Care (Δ improvement vs control) [4, 22]: 0 points

From patent US11191742B2, “Methods of treating neurodegenerative disorders in a particular population” (ALZHEON, INC., priority 2015, dated 2021)
